Data published in publication PMC9516332 (Frontiers in Oncology, 2022).
Like-named read-outs stand apart in the source and are kept apart here.

Columns and labels:
Test in all cases: Kinase panel profiling at 1 µmol/L (MSA or IMAP), percentage inhibition
Format in all cases: biochemical
[1] = biological target: panel of 255 wild-type kinases (Homo sapiens, UniProt Q13627); conditions: read-out: %-inhibition at 1 µmol/L, DYRK1A
[2] = biological target: panel of 255 wild-type kinases (Homo sapiens, UniProt P10721); conditions: read-out: %-inhibition at 1 µmol/L, KIT
[3] = biological target: panel of 255 wild-type kinases (Homo sapiens, UniProt P04629); conditions: read-out: %-inhibition at 1 µmol/L, TRKA
[4] = biological target: panel of 255 wild-type kinases (Homo sapiens, UniProt Q9HC98); conditions: read-out: %-inhibition, NEK6
[5] = biological target: T1, panel of 255 wild-type kinases (Homo sapiens, UniProt P43403); conditions: read-out: %-inhibition at 1 µmol/L, ZAP70
T1 sequence (P43403 1-619): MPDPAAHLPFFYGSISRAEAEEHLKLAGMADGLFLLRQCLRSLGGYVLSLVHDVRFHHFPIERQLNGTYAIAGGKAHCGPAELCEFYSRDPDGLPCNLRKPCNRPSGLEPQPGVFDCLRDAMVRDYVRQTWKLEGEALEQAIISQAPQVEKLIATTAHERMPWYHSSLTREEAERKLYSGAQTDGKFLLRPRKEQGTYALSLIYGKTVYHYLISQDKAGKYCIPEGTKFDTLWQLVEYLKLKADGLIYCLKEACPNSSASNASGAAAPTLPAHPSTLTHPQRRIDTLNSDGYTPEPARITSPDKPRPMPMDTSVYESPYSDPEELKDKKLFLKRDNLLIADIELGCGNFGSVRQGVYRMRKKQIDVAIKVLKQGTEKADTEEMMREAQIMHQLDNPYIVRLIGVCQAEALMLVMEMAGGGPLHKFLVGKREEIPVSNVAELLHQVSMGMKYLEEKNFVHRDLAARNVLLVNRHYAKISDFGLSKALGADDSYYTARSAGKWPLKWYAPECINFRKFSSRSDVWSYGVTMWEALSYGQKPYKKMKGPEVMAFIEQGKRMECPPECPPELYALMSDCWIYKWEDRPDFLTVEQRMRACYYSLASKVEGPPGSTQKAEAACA

[6] = biological target: panel of 255 wild-type kinases (Homo sapiens, UniProt Q9H4A3); conditions: read-out: %-inhibition at 1 µmol/L, WNK1
[7] = biological target: T2, panel of 255 wild-type kinases (Homo sapiens, UniProt O14920); conditions: read-out: %-inhibition at 1 µmol/L, IKKβ
T2 sequence (O14920 1-756): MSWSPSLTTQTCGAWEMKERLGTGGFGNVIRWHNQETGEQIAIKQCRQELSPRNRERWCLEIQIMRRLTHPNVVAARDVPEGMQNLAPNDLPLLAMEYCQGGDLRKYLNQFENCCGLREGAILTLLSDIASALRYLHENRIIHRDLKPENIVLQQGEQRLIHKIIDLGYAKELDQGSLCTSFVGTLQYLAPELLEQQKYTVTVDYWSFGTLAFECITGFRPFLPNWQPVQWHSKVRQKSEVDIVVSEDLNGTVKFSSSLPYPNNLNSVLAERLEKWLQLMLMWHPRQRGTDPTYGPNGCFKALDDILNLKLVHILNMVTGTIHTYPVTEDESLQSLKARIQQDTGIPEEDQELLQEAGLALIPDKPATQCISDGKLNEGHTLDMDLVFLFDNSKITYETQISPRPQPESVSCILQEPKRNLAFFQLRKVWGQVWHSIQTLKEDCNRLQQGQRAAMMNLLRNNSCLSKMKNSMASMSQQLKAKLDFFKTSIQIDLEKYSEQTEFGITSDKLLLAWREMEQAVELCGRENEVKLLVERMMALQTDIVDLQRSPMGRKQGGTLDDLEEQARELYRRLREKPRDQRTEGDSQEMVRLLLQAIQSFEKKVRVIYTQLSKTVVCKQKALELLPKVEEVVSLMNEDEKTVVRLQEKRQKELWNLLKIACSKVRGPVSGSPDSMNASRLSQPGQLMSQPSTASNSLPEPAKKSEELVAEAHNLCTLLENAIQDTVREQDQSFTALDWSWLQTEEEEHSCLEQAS

[8] = biological target: T3, panel of 255 wild-type kinases (Homo sapiens, UniProt Q9UHD2); conditions: read-out: %-inhibition at 1 µmol/L, TBK1
T3 sequence (Q9UHD2 1-729): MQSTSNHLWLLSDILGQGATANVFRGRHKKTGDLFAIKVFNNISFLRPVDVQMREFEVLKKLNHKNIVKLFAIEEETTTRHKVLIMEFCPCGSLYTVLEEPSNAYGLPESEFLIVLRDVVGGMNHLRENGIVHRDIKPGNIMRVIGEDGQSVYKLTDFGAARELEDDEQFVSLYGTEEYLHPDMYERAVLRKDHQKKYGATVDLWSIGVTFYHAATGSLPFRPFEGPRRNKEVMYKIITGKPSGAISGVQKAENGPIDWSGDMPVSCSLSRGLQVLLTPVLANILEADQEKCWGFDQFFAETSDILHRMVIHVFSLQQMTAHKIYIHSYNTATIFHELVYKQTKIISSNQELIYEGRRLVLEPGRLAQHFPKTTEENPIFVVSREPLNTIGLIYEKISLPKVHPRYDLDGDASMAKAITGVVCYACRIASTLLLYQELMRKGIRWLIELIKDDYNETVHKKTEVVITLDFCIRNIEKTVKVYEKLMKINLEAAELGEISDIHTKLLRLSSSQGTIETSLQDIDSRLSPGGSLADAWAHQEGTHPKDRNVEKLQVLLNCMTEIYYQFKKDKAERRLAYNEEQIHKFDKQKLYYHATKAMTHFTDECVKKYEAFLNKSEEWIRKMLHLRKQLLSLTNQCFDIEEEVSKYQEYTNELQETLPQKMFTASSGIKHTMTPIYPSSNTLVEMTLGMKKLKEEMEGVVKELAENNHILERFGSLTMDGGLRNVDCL

[9] = biological target: panel of 255 wild-type kinases (Homo sapiens, UniProt Q8IY84); conditions: read-out: %-inhibition, NIM1K
[10] = biological target: panel of 255 wild-type kinases (Homo sapiens, UniProt P23458); conditions: read-out: %-inhibition at 1 µmol/L, JAK1
[11] = kinase DYRK1A, 1 µmol/L single concentration
[12] = kinase KIT, 1 µmol/L single concentration
[13] = kinase TRKA, 1 µmol/L single concentration
[14] = NEK6, 1 µmol/L single concentration
[15] = kinase ZAP70, 1 µmol/L single concentration
[16] = kinase WNK1, 1 µmol/L single concentration
[17] = kinase IKKβ, 1 µmol/L single concentration
[18] = kinase TBK1, 1 µmol/L single concentration
[19] = NIM1K, 1 µmol/L single concentration
[20] = kinase JAK1, 1 µmol/L single concentration

| Compound | inhibition at 1 µM [1, 11] [%] | inhibition at 1 µM [2, 12] [%] | inhibition at 1 µM [3, 13] [%] | inhibition at 1 µM [4, 14] [%] | inhibition at 1 µM [5, 15] [%] | inhibition at 1 µM [6, 16] [%] | inhibition at 1 µM [7, 17] [%] | inhibition at 1 µM [8, 18] [%] | inhibition at 1 µM [9, 19] [%] | inhibition at 1 µM [10, 20] [%] | inhibition at 1 µM [1] [%] | inhibition at 1 µM [2] [%] | inhibition at 1 µM [3] [%] | inhibition at 1 µM [4] [%] | inhibition at 1 µM [5] [%] | inhibition at 1 µM [6] [%] | inhibition at 1 µM [7] [%] | inhibition at 1 µM [8] [%] | inhibition at 1 µM [9] [%] | inhibition at 1 µM [10] [%] |
| --- | --- | --- | --- | --- | --- | --- | --- | --- | --- | --- | --- | --- | --- | --- | --- | --- | --- | --- | --- | --- |
| Cc1nc(NC(=O)N2CCC[C@H]2C(N)=O)sc1-c1ccnc(C(C)(C)C(F)(F)F)c1 [alpelisib] | 6 | 5 | 6.61 | 0.343 | 1.11 | -4 | 0.111 | -2.72 | -1.81 | -8 | – | – | – | – | – | – | – | – | – | – |
| Cn1cc(-c2cc3c(N4CCN(c5ncc([C@@](C)(N)c6ccc(F)cc6)cn5)CC4)ncnn3c2)cn1 [avapritinib] | 57 | 100 | 65 | -1.13 | 13 | -5.32 | 0.049 | -1.13 | 0.427 | 29 | – | – | – | – | – | – | – | – | – | – |
| Cn1cnc2c(F)c(Nc3ccc(Br)cc3F)c(C(=O)NOCCO)cc21 [binimetinib] | -8 | -0.242 | -5 | -2.65 | -1.09 | -3.5 | -4 | 0.416 | -2.23 | 5 | – | – | – | – | – | – | – | – | – | – |
| CNC(=O)c1ccc(-c2cnc3ncc(Cc4ccc5ncccc5c4)n3n2)cc1F [capmatinib] | – | – | – | – | – | – | – | – | – | – | -0.902 | 4 | 39 | -4 | 4 | -5 | -0.588 | -2.83 | -2 | 2.61 |
| COc1cc2ncnc(Nc3ccc(F)c(Cl)c3)c2cc1NC(=O)/C=C/CN1CCCCC1 [dacomitinib] | 9 | -10 | 6 | -4.7 | -4 | -4 | 6 | 17 | 1.1 | 0.444 | – | – | – | – | – | – | – | – | – | – |
| C[C@H](Nc1ncnc2nc[nH]c12)c1cc2cccc(Cl)c2c(=O)n1-c1ccccc1 [duvelisib] | -3.48 | -2.43 | 9 | -1 | 2 | -3 | 0.466 | -2.46 | -3.41 | 0.053 | – | – | – | – | – | – | – | – | – | – |
| COC(=O)N[C@@H](C)CNc1nccc(-c2cn(C(C)C)nc2-c2cc(Cl)cc(NS(C)(=O)=O)c2F)n1 [encorafenib] | 6 | -1.43 | -2.7 | -2.36 | 0.195 | 0.0799 | 0.644 | 1.21 | -12 | 3.6 | – | – | – | – | – | – | – | – | – | – |
| CN1CCN(c2ccc(C(=O)Nc3n[nH]c4ccc(Cc5cc(F)cc(F)c5)cc34)c(NC3CCOCC3)c2)CC1 [entrectinib] | -3.18 | 21 | – | -1.86 | 2.19 | -2.18 | -0.451 | 8 | -1.5 | 91 | – | – | – | – | – | – | – | – | – | – |
| CCc1nc(C(N)=O)c(Nc2ccc(N3CCC(N4CCN(C)CC4)CC3)c(OC)c2)nc1NC1CCOCC1 [gilteritinib] | 18 | 71 | 100 | -2 | 46 | -3 | 5.66 | 24 | 29 | 24 | – | – | – | – | – | – | – | – | – | – |
| CCN1CCN(c2ccc(Nc3cc(N(C)C(=O)Nc4c(Cl)c(OC)cc(OC)c4Cl)ncn3)cc2)CC1 [infigratinib] | -4 | – | 27 | -2.62 | -2.77 | -4.6 | 0.304 | -4 | -2.7 | 2.57 | – | – | – | – | – | – | – | – | – | – |
| O=C(Nc1cnn2ccc(N3CCC[C@@H]3c3cc(F)ccc3F)nc12)N1CC[C@H](O)C1 [larotrectinib] | -4.7 | -5 | 99 | 0.246 | 4.69 | -4.49 | -1.76 | 0.0799 | -1.85 | 0.894 | – | – | – | – | – | – | – | – | – | – |
| C[C@H]1Oc2cc(cnc2N)-c2c(nn(C)c2C#N)CN(C)C(=O)c2ccc(F)cc21 [lorlatinib] | -4.39 | 4.22 | – | -0.382 | 6 | 0.826 | -0.377 | -1.23 | 1.32 | -0.817 | – | – | – | – | – | – | – | – | – | – |
| CCn1c(=O)c(-c2cc(NC(=O)Nc3ccccc3)c(F)cc2Br)cc2cnc(NC)cc21 [ripretinib] | 1.4 | – | 42 | -4 | -8 | -5 | 21 | 0.403 | 0.056 | 26 | – | – | – | – | – | – | – | – | – | – |
